{"source": "paper PMC11169275", "about": "“MAL2 reprograms lipid metabolism in intrahepatic cholangiocarcinoma via EGFR/SREBP-1 pathway based on single-cell RNA sequencing” (Cell Death & Disease, 2024)", "biological_target": "T1, MAL2 (GFP-MAL2) (Homo sapiens, UniProt Q969L2)", "T1 construct": "GFP fusion (GFP-MAL2) transiently expressed in HEK293T, diluted cell lysate, not purified", "T1 sequence (Q969L2 whole entry, the tested form may be a part)": "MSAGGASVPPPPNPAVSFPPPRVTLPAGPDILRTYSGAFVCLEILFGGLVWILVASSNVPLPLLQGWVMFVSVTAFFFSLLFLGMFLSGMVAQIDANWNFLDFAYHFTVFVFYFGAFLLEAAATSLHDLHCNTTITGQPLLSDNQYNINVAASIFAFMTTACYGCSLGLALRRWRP", "assay": "microscale thermophoresis, GFP-MAL2 in HEK293T lysate", "format": "binding", "text": "microscale thermophoresis, GFP-MAL2 in HEK293T lysate on MAL2 (GFP-MAL2) | only sarizotan could assemble with MAL2, with a dissociation constant (Kd)"}
{"compound": "Fc1ccc(-c2cncc(CNC[C@H]3CCc4ccccc4O3)c2)cc1", "note": "[sarizotan]", "values": [{"measurement": "Kd", "value": 36.1, "unit": "µM"}]}
